Test results reported in ChEMBL document CHEMBL1139861, “Novel series of potent, nonsteroidal, selective androgen receptor modulators based on 7H-[1,4]oxazino[3,2-g]quinolin-7-ones” (J Med Chem, 2007).

Key:
Androgen receptor [1] = molecular target: T1, Androgen receptor (Homo sapiens, UniProt P10275)
T1 sequence (P10275 whole entry): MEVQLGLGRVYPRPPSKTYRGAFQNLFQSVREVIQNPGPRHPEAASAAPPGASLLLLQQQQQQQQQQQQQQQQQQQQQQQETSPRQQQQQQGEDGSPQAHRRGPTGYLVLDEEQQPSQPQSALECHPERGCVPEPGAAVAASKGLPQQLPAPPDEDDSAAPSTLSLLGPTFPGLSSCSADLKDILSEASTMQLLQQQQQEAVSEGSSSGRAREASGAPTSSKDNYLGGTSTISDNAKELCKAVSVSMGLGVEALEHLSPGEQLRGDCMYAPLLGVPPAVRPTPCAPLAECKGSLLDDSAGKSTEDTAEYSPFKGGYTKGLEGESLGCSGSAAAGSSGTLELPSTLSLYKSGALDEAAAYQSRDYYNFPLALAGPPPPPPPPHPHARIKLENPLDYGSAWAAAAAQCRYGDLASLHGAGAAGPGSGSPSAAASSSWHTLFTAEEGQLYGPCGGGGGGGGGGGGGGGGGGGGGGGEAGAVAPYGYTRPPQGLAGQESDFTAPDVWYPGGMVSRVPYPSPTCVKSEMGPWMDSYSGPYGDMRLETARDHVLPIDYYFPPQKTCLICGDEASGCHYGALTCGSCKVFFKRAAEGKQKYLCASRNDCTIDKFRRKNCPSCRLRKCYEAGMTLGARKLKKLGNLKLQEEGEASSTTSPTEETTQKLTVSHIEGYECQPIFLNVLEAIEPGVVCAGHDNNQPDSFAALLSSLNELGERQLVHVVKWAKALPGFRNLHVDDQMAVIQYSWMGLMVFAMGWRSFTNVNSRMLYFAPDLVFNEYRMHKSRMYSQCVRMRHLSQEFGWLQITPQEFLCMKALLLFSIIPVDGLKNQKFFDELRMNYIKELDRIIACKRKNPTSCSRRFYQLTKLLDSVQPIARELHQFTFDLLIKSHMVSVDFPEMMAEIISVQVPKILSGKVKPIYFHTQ
Description: Antagonist activity at human androgen receptor expressed in CV1 cells by transcriptional activation assay

Progesterone receptor = molecular target: T2, Progesterone receptor (Homo sapiens, UniProt P06401)
T2 sequence (P06401 whole entry): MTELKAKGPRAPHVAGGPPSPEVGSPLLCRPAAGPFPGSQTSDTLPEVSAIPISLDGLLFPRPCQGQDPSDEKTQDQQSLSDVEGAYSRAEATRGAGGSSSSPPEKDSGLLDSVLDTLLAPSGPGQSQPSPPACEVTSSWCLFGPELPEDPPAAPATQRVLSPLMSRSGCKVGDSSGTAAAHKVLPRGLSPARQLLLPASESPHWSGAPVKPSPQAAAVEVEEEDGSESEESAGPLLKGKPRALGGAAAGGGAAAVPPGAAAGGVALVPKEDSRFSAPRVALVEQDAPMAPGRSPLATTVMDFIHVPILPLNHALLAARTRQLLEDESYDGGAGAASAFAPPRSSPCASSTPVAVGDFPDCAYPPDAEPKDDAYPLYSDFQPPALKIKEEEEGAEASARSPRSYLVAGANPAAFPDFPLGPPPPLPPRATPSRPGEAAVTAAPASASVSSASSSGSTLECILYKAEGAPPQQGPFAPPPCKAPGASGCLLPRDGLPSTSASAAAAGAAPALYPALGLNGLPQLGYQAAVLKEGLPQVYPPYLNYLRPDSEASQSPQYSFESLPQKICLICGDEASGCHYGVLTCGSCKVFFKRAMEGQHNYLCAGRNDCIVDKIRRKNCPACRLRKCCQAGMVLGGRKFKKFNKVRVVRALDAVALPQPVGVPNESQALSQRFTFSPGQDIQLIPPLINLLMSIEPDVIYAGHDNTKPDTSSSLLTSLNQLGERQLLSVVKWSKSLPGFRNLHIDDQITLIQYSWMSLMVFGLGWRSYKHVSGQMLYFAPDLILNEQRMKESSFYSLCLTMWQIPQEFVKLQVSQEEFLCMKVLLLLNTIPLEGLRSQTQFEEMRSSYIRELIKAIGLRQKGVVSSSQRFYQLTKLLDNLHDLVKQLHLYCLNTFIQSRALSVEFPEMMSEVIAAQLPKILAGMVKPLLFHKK
Description: Displacement of [3H]progesterone from human PRA

Glucocorticoid receptor = molecular target: T3, Glucocorticoid receptor (Homo sapiens, UniProt P04150); test: Displacement of radiolabeled Dexamethasone from human GR
T3 sequence (P04150 whole entry): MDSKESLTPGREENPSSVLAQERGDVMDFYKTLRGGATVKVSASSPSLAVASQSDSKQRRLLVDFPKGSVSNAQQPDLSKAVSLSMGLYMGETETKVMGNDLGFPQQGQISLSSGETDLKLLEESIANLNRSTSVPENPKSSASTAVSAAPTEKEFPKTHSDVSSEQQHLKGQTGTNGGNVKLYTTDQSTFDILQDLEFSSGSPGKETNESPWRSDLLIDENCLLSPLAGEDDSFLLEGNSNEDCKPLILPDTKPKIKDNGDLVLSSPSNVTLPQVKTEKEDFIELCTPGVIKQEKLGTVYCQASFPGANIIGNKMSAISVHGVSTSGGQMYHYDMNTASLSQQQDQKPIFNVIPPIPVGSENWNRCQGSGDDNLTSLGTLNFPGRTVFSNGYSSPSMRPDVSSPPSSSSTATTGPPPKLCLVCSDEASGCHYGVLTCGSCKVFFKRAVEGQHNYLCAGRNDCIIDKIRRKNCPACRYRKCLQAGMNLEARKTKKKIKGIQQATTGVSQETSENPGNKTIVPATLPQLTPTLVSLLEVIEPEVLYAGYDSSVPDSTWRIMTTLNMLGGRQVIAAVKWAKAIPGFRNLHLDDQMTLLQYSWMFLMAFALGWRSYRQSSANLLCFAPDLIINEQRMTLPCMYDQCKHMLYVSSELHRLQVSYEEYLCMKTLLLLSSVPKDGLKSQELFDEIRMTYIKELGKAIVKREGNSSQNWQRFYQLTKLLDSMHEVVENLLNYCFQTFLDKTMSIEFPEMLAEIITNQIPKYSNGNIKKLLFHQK

[2] = molecular target: T4, Mineralocorticoid receptor (Homo sapiens, UniProt P08235)
T4 sequence (P08235 whole entry): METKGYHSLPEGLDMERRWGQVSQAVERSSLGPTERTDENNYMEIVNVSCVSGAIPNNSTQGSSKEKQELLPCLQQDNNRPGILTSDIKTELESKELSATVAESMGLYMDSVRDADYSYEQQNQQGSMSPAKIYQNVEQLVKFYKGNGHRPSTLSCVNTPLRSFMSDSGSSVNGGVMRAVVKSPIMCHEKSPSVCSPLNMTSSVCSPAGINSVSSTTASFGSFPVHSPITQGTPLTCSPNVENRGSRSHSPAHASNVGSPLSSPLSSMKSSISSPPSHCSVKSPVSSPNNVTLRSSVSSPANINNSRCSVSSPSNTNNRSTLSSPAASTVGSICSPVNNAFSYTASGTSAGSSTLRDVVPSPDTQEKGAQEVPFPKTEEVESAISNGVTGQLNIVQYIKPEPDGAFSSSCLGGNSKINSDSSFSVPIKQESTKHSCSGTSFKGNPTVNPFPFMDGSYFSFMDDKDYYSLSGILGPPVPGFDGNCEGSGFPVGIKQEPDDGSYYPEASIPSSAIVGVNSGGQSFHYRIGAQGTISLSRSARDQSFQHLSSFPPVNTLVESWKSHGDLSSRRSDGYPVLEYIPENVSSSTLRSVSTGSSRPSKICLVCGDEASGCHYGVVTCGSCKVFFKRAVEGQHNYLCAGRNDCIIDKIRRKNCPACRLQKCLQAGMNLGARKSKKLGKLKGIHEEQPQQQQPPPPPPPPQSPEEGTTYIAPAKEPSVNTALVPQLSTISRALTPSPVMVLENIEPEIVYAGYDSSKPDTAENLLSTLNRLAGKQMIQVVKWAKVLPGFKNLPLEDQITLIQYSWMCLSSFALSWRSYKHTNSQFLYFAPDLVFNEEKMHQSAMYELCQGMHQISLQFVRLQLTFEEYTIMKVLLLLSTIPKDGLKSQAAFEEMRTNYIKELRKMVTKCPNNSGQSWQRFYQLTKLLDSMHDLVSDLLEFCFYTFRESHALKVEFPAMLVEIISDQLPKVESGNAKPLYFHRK
Description: Displacement of radiolabeled aldosterone from human MR

Androgen receptor [3] = molecular target: T1, Androgen receptor; remark: listed apart in the source
Description: Agonist activity at human androgen receptor expressed in CV1 cells by transcriptional activation assay

Androgen receptor [4] = molecular target: T1, Androgen receptor; test: biochemical
Description: Displacement of [3H]DHT from human AR expressed in MDA-MB-453 cells

Rattus norvegicus [5] = species on record: Rattus norvegicus; conditions: dose 100 mg/kg; route oral
Rattus norvegicus [6] = species on record: Rattus norvegicus; conditions: dose 100 mg/kg; route oral; remark: listed apart in the source

SMILES | IC50 (Androgen receptor [1]) [µM] | EC50 (Androgen receptor [3]) [µM] | Ki (Androgen receptor [4]) [µM] | other results
CCN1CCOc2cc3[nH]c(=O)cc(C(F)(F)F)c3cc21 | > 10 |  |  | Ki (Progesterone receptor): 5.2 µM; Ki (Glucocorticoid receptor): 8.1 µM; Ki [2]: > 10 µM
CC(C)[C@@H]1COc2cc3[nH]c(=O)cc(C(F)(F)F)c3cc2N1CC(F)(F)F |  | 0.0059 | 0.051 | 
CN1CCOc2cc3[nH]c(=O)cc(C(F)(F)F)c3cc21 | > 10 |  |  | 
CCCN1CCOc2cc3[nH]c(=O)cc(C(F)(F)F)c3cc21 | > 10 |  |  | 
CC(C)CN1CCOc2cc3[nH]c(=O)cc(C(F)(F)F)c3cc21 |  | 0.0032 | 0.017 | 
CC(C)C[C@@H]1COc2cc3[nH]c(=O)cc(C(F)(F)F)c3cc2N1CC(F)(F)F |  | 0.027 | 0.109 | 
O=c1cc(C(F)(F)F)c2cc3c(cc2[nH]1)OC[C@H]1CCCN31 |  | 0.026 | 0.027 | 
O=c1cc(C(F)(F)F)c2cc3c(cc2[nH]1)OCCN3CC(F)(F)F | > 10 |  |  | Ki (Progesterone receptor): 5.3 µM; Ki (Glucocorticoid receptor): 9.2 µM; Ki [2]: > 10 µM
O=c1cc(C(F)(F)F)c2cc3c(cc2[nH]1)OCCN3CC1CC1 |  |  |  | Ki (Progesterone receptor): 2 µM; Ki (Glucocorticoid receptor): 8.8 µM; Ki [2]: > 10 µM
CC(C)(C)N1CCOc2cc3[nH]c(=O)cc(C(F)(F)F)c3cc21 | > 10 | 0.0078 | 0.048 | 
O=c1cc(C(F)(F)F)c2cc3c(cc2[nH]1)OCCN3Cc1ccccc1 | 0.224 | > 10 | 0.206 | 
O=c1cc(C(F)(F)F)c2cc3c(cc2[nH]1)OCCN3 | 0.296 | > 10 | > 1 | 
CCC1COc2cc3[nH]c(=O)cc(C(F)(F)F)c3cc2N1CC (racemic) |  | 0.0039 | 0.0056 | 
O=c1cc(C(F)(F)F)c2cc3c(cc2[nH]1)OCC1CCCCN31 (racemic) |  | 0.014 | 0.016 | Ki (Progesterone receptor): > 10 µM; Ki (Glucocorticoid receptor): > 10 µM
CC1COc2cc3[nH]c(=O)cc(C(F)(F)F)c3cc2N1 (racemic) |  | 0.133 | 0.113 | 
CCN1c2cc3c(C(F)(F)F)cc(=O)[nH]c3cc2OCC1C (racemic) |  | 0.01 | 0.0042 | 
CC1COc2cc3[nH]c(=O)cc(C(F)(F)F)c3cc2N1CC1CC1 (racemic) |  | 0.0019 | 0.004 | 
CC1CN(CC(F)(F)F)c2cc3c(C(F)(F)F)cc(=O)[nH]c3cc2O1 (racemic) |  |  |  | Ki (Progesterone receptor): 7 µM; Ki (Glucocorticoid receptor): > 10 µM; Ki [2]: > 10 µM
CCC1CN(C)c2cc3c(C(F)(F)F)cc(=O)[nH]c3cc2O1 (racemic) | 0.067 | 0.052 | 0.058 | 
CC1CN(C)c2cc3c(C(F)(F)F)cc(=O)[nH]c3cc2O1 (racemic) |  | 0.047 | 0.033 | 
CCC1CN(CC(F)(F)F)c2cc3c(C(F)(F)F)cc(=O)[nH]c3cc2O1 (racemic) | > 10 | 0.015 | 0.03 | 
CCC1CN(CC)c2cc3c(C(F)(F)F)cc(=O)[nH]c3cc2O1 (racemic) | > 10 | 0.031 | 0.034 | 
CCC1COc2cc3[nH]c(=O)cc(C(F)(F)F)c3cc2N1CC1CC1 (racemic) |  | 0.0023 | 0.023 | Ki (Progesterone receptor): 5.4 µM; Ki (Glucocorticoid receptor): > 10 µM
CC1CN(CC(F)(F)F)c2cc3c(C(F)(F)F)cc(=O)[nH]c3cc2O1 (stereo in doubt; (-)-10h) | > 10 |  |  | 
C[C@]1(O)CC[C@H]2[C@@H]3CCC4=CC(=O)CC[C@]4(C)[C@@]3(F)[C@@H](O)C[C@@]21C [FLUOXYMESTERONE] |  |  |  | Efficacy (Rattus norvegicus [5]): 79%; Efficacy (Rattus norvegicus [6]): 129%
